The target of this test is T1, STK32B (YANK2) (Homo sapiens, UniProt Q9NY57).
T1 construct: purchased Thermo Fisher Scientific (Life Technologies) SelectScreen
Kind of test: SelectScreen LanthaScreen. In kind it is binding. The note with it: read-out: % displacement. In outline:
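SelectScreen broad panel; activity (Z'LYTE, Adapta) plus binding formats. ATP: Km app for CSF1R Z'LYTE; 10 for CAMK1 Adapta. Readout = % per kinase.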
(In TR-FRET formats the signal depends on donor and acceptor labels being close together.)

This passage reports inhibition results from PMC6934184, “Selective DNA-PKcs inhibition extends the therapeutic index of localized radiotherapy and chemotherapy” (The Journal of Clinical Investigation, 2019).

T1 sequence (Q9NY57 whole entry): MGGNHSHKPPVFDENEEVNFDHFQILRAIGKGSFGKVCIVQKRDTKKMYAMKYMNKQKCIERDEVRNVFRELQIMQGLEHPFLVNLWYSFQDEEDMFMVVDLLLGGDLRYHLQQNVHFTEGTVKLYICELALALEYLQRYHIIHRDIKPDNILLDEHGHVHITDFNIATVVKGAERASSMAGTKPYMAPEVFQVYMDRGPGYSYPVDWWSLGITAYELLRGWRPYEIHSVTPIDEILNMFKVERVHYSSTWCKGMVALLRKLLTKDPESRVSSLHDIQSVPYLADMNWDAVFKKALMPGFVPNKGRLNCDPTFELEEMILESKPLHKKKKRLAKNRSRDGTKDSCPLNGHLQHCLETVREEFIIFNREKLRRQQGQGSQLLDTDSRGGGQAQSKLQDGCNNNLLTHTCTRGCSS

Consider `CN(C(=O)CN1CCOCC1)c1ccc2sc3c(-c4cccc5c(=O)cc(N6CC7CCC(C6)O7)oc45)cccc3c2c1` [NU5455], for which the inhibition at 1 µM is -1.4%.
